In brackets after ≈: the same amount, converted by molar mass. Read-outs that look alike come from different tables or passages of the source.
Tests used:
[1] = system: E. coli ELZ4251 (MDR clinical isolate); assay: Antibacterial activity, MIC, MDR E. coli ELZ4251; type: cell-based, Escherichia coli; conditions: Escherichia coli, E. coli ELZ4251, MDR clinical isolate; read-out: MIC ELZ4251
[2] = system: E. coli ELZ4000 (MDR clinical isolate); assay: Antibacterial activity, MIC, MDR E. coli ELZ4000; type: cell-based, Escherichia coli; conditions: Escherichia coli; E. coli ELZ4000, MDR clinical isolate; read-out: MIC ELZ4000
[3] = system: Gram-positive Staphylococcus aureus (S. aureus) 29213; assay: Antibacterial activity, microbroth dilution MIC, S. aureus 29213; type: cell-based; conditions: Staphylococcus aureus; S. aureus 29213, microbroth dilution; read-out: MIC, 29213
[4] = system: quinolone resistant E. coli LZ3111; assay: Antibacterial activity, MIC, quinolone resistant E. coli LZ3111; type: cell-based, Escherichia coli; conditions: Escherichia coli, read-out: MIC, LZ3111
Text: (§1) The antibacterial activity from a microbroth dilution method may be presented as the minimum inhibitory concentration (MIC in […]). The MIC value is the lowest concentration of a drug which prevents macroscopically visible bacterial growth under test conditions.
Mutations in these regions are known to confer a high level resistance to the quinolone class of antibiotics.

[5] = system: super sensitive Gram-negative Escherichia coli (E. coli) BAS849; assay: Antibacterial activity, microbroth dilution MIC, E. coli BAS849; type: cell-based; conditions: Escherichia coli, read-out: MIC, BAS849
[6] = system: control Gram-negative E. coli 25922 strain; assay: Antibacterial activity, microbroth dilution MIC, E. coli 25922; type: cell-based, Escherichia coli; conditions: Escherichia coli; E. coli 25922, microbroth dilution; read-out: MIC, 25922
[7] = system: Pseudomonas aeruginosa (P. aeruginosa) 27853; assay: Antibacterial activity, MIC, P. aeruginosa 27853; type: cell-based; conditions: Pseudomonas aeruginosa, P. aeruginosa 27853; read-out: MIC 27853
Text: as §1
Antibacterial activity of test compounds against the Gram-negative bacterium Pseudomonas aeruginosa (P. aeruginosa) 27853 is shown in Table 5.

[8] = E. coli BAS849, microbroth dilution

| Compound | MIC [1] | MIC [2] | MIC [3] | MIC [4] | MIC [5, 8] | MIC [6] | MIC [7] | MIC [5] |
| --- | --- | --- | --- | --- | --- | --- | --- | --- |
| CCc1cc(C(=O)O)c(=O)[nH]c1-c1ccc(OC)cc1 [Cpd 24, 5-ethyl-6-(4-methoxyphenyl)-2-oxo-1,2-dihydropyridine-3-carboxylic acid] | 12.5 to 150 mg/L (≈ 45.7 to 549 µM) | 12.5 to 150 mg/L (≈ 45.7 to 549 µM) | 12.5 to 150 mg/L (≈ 45.7 to 549 µM) | 12.5 to 150 mg/L (≈ 45.7 to 549 µM) | < 1 mg/L | 3.5 to 12.5 mg/L (≈ 12.8 to 45.7 µM) | – | – |
| CCc1c(-c2ccc(N3CC[C@H](F)C3)cc2)[nH]c(=O)c(C(=O)O)c1O [Cpd 85, 5-ethyl-6-{4-[(3S)-3-fluoropyrrolidin-1-yl]phenyl}-4-hydroxy-2-oxo-1,2-dihydropyridine-3-carboxylic acid] | 12.5 to 150 mg/L (≈ 36.1 to 433 µM) | 12.5 to 150 mg/L (≈ 36.1 to 433 µM) | 3.5 to 12.5 mg/L (≈ 10.1 to 36.1 µM) | 12.5 to 150 mg/L (≈ 36.1 to 433 µM) | < 1 mg/L | 12.5 to 150 mg/L (≈ 36.1 to 433 µM) | 12.5 to 150 mg/L (≈ 36.1 to 433 µM) | – |
| CCc1cc(C(=O)O)c(=O)[nH]c1-c1ccc(N2CCC(N=[N+]=[N-])C2)cc1 (stereo not drawn) [Cpd 129, 6-[4-(3-azidopyrrolidin-1-yl)phenyl]-5-ethyl-2-oxo-1,2-dihydropyridine-3-carboxylic acid] | 12.5 to 150 mg/L (≈ 35.4 to 424 µM) | 12.5 to 150 mg/L (≈ 35.4 to 424 µM) | 3.5 to 12.5 mg/L (≈ 9.9 to 35.4 µM) | 12.5 to 150 mg/L (≈ 35.4 to 424 µM) | < 1 mg/L | 1 to 3.5 mg/L (≈ 2.83 to 9.9 µM) | 12.5 to 150 mg/L (≈ 35.4 to 424 µM) | – |
| CCc1cc(C(=O)O)c(=O)[nH]c1-c1ccc(N2CC[C@H](N=[N+]=[N-])C2)cc1 [Cpd 130, 6-{4-[(3S)-3-azidopyrrolidin-1-yl]phenyl}-5-ethyl-2-oxo-1,2-dihydropyridine-3-carboxylic acid] | 12.5 to 150 mg/L (≈ 35.4 to 424 µM) | 12.5 to 150 mg/L (≈ 35.4 to 424 µM) | 3.5 to 12.5 mg/L (≈ 9.9 to 35.4 µM) | 12.5 to 150 mg/L (≈ 35.4 to 424 µM) | < 1 mg/L | 1 to 3.5 mg/L (≈ 2.83 to 9.9 µM) | – | – |
| CCc1cc(C(=O)O)c(=O)[nH]c1-c1ccc(N2CCC(N)C2)cc1.O=C(O)C(F)(F)F (stereo not drawn) [Cpd 131, 6-[4-(3-aminopyrrolidin-1-yl)phenyl]-5-ethyl-2-oxo-1,2-dihydropyridine-3-carboxylic acid trifluoroacetate] | 12.5 to 150 mg/L | 12.5 to 150 mg/L | 12.5 to 150 mg/L | 12.5 to 150 mg/L | – | 3.5 to 12.5 mg/L | 12.5 to 150 mg/L | < 1 mg/L |
| CCc1cc(C(=O)O)c(=O)[nH]c1-c1ccc(N2CCCC2C)cc1 (stereo not drawn) [Cpd 139, 5-ethyl-6-[4-(2-methylpyrrolidin-1-yl)phenyl]-2-oxo-1,2-dihydropyridine-3-carboxylic acid] | 12.5 to 150 mg/L (≈ 38.3 to 460 µM) | 12.5 to 150 mg/L (≈ 38.3 to 460 µM) | 3.5 to 12.5 mg/L (≈ 10.7 to 38.3 µM) | 12.5 to 150 mg/L (≈ 38.3 to 460 µM) | < 1 mg/L | 3.5 to 12.5 mg/L (≈ 10.7 to 38.3 µM) | 12.5 to 150 mg/L (≈ 38.3 to 460 µM) | – |
| CCc1cc(C(=O)O)c(=O)[nH]c1-c1ccc(N2CCC(N(C)C)C2)cc1 (stereo not drawn) [Cpd 149, 6-{4-[3-(dimethylamino)pyrrolidin-1-yl]phenyl}-5-ethyl-2-oxo-1,2-dihydropyridine-3-carboxylic acid] | 12.5 to 150 mg/L (≈ 35.2 to 422 µM) | 12.5 to 150 mg/L (≈ 35.2 to 422 µM) | 12.5 to 150 mg/L (≈ 35.2 to 422 µM) | 12.5 to 150 mg/L (≈ 35.2 to 422 µM) | < 1 mg/L | 1 to 3.5 mg/L (≈ 2.81 to 9.85 µM) | 12.5 to 150 mg/L (≈ 35.2 to 422 µM) | – |
| CCc1cc(C(=O)O)c(=O)[nH]c1-c1ccc(N2CCC(F)C2)cc1 (stereo not drawn) [Cpd 152, 5-ethyl-6-[4-(3-fluoropyrrolidin-1-yl)phenyl]-2-oxo-1,2-dihydropyridine-3-carboxylic acid] | 12.5 to 150 mg/L (≈ 37.8 to 454 µM) | 12.5 to 150 mg/L (≈ 37.8 to 454 µM) | 3.5 to 12.5 mg/L (≈ 10.6 to 37.8 µM) | 12.5 to 150 mg/L (≈ 37.8 to 454 µM) | < 1 mg/L | 1 to 3.5 mg/L (≈ 3.03 to 10.6 µM) | 3.5 to 12.5 mg/L (≈ 10.6 to 37.8 µM) | – |
| CCc1cc(C(=O)O)c(=O)[nH]c1-c1ccc(N2CC[C@H](F)C2)cc1 [Cpd 153, 5-ethyl-6-{4-[(3S)-3-fluoropyrrolidin-1-yl]phenyl}-2-oxo-1,2-dihydropyridine-3-carboxylic acid] | 12.5 to 150 mg/L (≈ 37.8 to 454 µM) | 12.5 to 150 mg/L (≈ 37.8 to 454 µM) | 1 to 3.5 mg/L (≈ 3.03 to 10.6 µM) | 12.5 to 150 mg/L (≈ 37.8 to 454 µM) | < 1 mg/L | < 1 mg/L | 3.5 to 12.5 mg/L (≈ 10.6 to 37.8 µM) | – |
| CCc1cc(C(=O)O)c(=O)[nH]c1-c1ccc(N(C)CCN(C)C)cc1 [Cpd 161, 6-(4-{[2-(dimethylamino)ethyl](methyl)amino}phenyl)-5-ethyl-2-oxo-1,2-dihydropyridine-3-carboxylic acid] | 12.5 to 150 mg/L (≈ 36.4 to 437 µM) | 12.5 to 150 mg/L (≈ 36.4 to 437 µM) | 12.5 to 150 mg/L (≈ 36.4 to 437 µM) | 12.5 to 150 mg/L (≈ 36.4 to 437 µM) | < 1 mg/L | 1 to 3.5 mg/L (≈ 2.91 to 10.2 µM) | – | – |
| CC(C)c1cc(C(=O)O)c(=O)[nH]c1-c1ccc(N2CCCC2)cc1 [Cpd 163, 5-isopropyl-2-oxo-6-[4-(pyrrolidin-1-yl)phenyl]-1,2-dihydropyridine-3-carboxylic acid] | 12.5 to 150 mg/L (≈ 38.3 to 460 µM) | 12.5 to 150 mg/L (≈ 38.3 to 460 µM) | 12.5 to 150 mg/L (≈ 38.3 to 460 µM) | 12.5 to 150 mg/L (≈ 38.3 to 460 µM) | < 1 mg/L | 3.5 to 12.5 mg/L (≈ 10.7 to 38.3 µM) | – | – |
| O=C(O)c1cc(C2CC2)c(-c2ccc(N3CCCC3)cc2)[nH]c1=O [Cpd 164, 5-cyclopropyl-2-oxo-6-[4-(pyrrolidin-1-yl)phenyl]-1,2-dihydropyridine-3-carboxylic acid] | 12.5 to 150 mg/L (≈ 38.5 to 462 µM) | 12.5 to 150 mg/L (≈ 38.5 to 462 µM) | 3.5 to 12.5 mg/L (≈ 10.8 to 38.5 µM) | 12.5 to 150 mg/L (≈ 38.5 to 462 µM) | < 1 mg/L | 1 to 3.5 mg/L (≈ 3.08 to 10.8 µM) | – | – |
| CCc1cc(C(=O)O)c(=O)[nH]c1-c1ccc(N2CC3NCCOC3C2)cc1.Cl (stereo not drawn) [Cpd 179, 5-ethyl-6-[4-(hexahydropyrrolo[3,4-b][1,4]oxazin-6(2H)-yl)phenyl]-2-oxo-1,2-dihydropyridine-3-carboxylic acid hydrochloride] | 12.5 to 150 mg/L | 12.5 to 150 mg/L | 12.5 to 150 mg/L | 12.5 to 150 mg/L | 1 to 3.5 mg/L | 3.5 to 12.5 mg/L | – | – |
| CCc1cc(C(=O)O)c(=O)[nH]c1-c1ccc(N2CCC(CN(C)Cc3ccccc3)C2)cc1.O=C(O)C(F)(F)F (stereo not drawn) [Cpd 183, 6-[4-(3-{[benzyl(methyl)amino]methyl}pyrrolidin-1-yl)phenyl]-5-ethyl-2-oxo-1,2-dihydropyridine-3-carboxylic acid trifluoroacetate] | 12.5 to 150 mg/L | 12.5 to 150 mg/L | 12.5 to 150 mg/L | 12.5 to 150 mg/L | – | 3.5 to 12.5 mg/L | – | < 1 mg/L |
| CCc1cc(C(=O)O)c(=O)[nH]c1-c1ccc(N2C[C@H]3CN(Cc4ccccc4)C[C@H]3C2)cc1.Cl [Cpd 206, 6-{4-[(3aR,6aS)-5-benzylhexahydropyrrolo[3,4-c]pyrrol-2(1H)-yl]phenyl}-5-ethyl-2-oxo-1,2-dihydropyridine-3-carboxylic acid hydrochloride] | 12.5 to 150 mg/L | 12.5 to 150 mg/L | 12.5 to 150 mg/L | 12.5 to 150 mg/L | 1 to 3.5 mg/L | 3.5 to 12.5 mg/L | – | – |
| CCc1cc(C(=O)O)c(=O)[nH]c1-c1ccc(N2C[C@H]3CN(C)C[C@H]3C2)cc1.Cl [Cpd 208, 5-ethyl-6-{4-[(3aR,6aS)-5-methylhexahydropyrrolo[3,4-c]pyrrol-2(1H)-yl]phenyl}-2-oxo-1,2-dihydropyridine-3-carboxylic acid hydrochloride] | 12.5 to 150 mg/L | 12.5 to 150 mg/L | 12.5 to 150 mg/L | 12.5 to 150 mg/L | 1 to 3.5 mg/L | 3.5 to 12.5 mg/L | – | – |
| CCc1cc(C(=O)O)c(=O)[nH]c1-c1ccc(CN2CCCCC2)n1C [Cpd 352, 5-ethyl-6-(1-methyl-5-(piperidin-1-ylmethyl)-1H-pyrrol-2-yl)-2-oxo-1,2-dihydropyridine-3-carboxylic acid] | – | – | 12.5 to 150 mg/L (≈ 36.4 to 437 µM) | 12.5 to 150 mg/L (≈ 36.4 to 437 µM) | 12.5 to 150 mg/L (≈ 36.4 to 437 µM) | 12.5 to 150 mg/L (≈ 36.4 to 437 µM) | – | – |
| CCc1cc(C(=O)O)c(=O)[nH]c1-c1ccc(CN2CCC(N(C)C)C2)n1C (stereo not drawn) [Cpd 353, 6-(5-((3-(dimethylamino)pyrrolidin-1-yl)methyl)-1-methyl-1H-pyrrol-2-yl)-5-ethyl-2-oxo-1,2-dihydropyridine-3-carboxylic acid] | – | – | 12.5 to 150 mg/L (≈ 33.6 to 403 µM) | 12.5 to 150 mg/L (≈ 33.6 to 403 µM) | 12.5 to 150 mg/L (≈ 33.6 to 403 µM) | 12.5 to 150 mg/L (≈ 33.6 to 403 µM) | – | – |
